pIC50: −log10 of the molar value. One block for each compound: values may come before it. Square brackets hold non-standard residues; d marks the D form. Ends that are not written are not given here. Peptide text beside a SMILES is read from it. Nle = CCCC[C@H](N)C(=O)O
Tests used:
restenosis = details: in vivo; cited from earlier work
Human Calpain II = molecular target: T1, Human Calpain II (Homo sapiens, UniProt P17655); test: Calpain II activity, casein substrate, Coomassie microplate assay; format: biochemical; details: casein 0.5 mg/mL (Table I)
T1 sequence (P17655 1-700): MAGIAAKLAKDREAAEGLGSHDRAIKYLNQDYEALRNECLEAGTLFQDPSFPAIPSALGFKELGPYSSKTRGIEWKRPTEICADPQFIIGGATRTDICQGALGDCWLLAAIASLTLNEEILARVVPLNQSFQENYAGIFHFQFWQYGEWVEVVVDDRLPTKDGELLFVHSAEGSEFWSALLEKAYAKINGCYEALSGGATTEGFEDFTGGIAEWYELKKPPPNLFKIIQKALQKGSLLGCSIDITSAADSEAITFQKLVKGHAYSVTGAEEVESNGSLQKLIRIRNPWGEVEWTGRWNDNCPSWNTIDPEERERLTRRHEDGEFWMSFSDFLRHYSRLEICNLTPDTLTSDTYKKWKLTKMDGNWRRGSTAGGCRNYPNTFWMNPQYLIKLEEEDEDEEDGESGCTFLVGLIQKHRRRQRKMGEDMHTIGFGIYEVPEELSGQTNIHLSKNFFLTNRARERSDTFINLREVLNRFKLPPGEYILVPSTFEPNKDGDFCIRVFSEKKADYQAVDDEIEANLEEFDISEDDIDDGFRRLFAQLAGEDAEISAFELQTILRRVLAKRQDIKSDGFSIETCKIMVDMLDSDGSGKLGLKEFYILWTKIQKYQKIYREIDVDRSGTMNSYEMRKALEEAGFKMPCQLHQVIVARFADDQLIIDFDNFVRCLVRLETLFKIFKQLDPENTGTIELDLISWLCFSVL
T1 sequence (P04632 1-268 partner): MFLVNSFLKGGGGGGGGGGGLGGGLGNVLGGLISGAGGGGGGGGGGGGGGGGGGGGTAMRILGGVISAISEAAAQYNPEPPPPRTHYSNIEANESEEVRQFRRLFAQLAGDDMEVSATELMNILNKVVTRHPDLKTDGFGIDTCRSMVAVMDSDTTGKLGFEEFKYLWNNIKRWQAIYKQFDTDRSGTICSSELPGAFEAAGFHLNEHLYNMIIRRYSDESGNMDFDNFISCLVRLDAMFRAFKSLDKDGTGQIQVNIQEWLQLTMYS
Protocol: (§1) Assay of calpain activity: Calpain I was purified from human erythrocytes as described by Wang K K W, Roufogalis B D, and Villalobo A, Arch Biochem Biophys 1988;267: 317-327. Calpain activity was assayed in a 96-well microplate format (Buroker-Kilgore M and Wang K K W, Anal Bio Chem 1993;208: 387-392). In 250 μL of reaction mixture, substrate casein (0.5 mg/mL) was incubated with 0.01 unit (80-120 ng) calpain I, 20 mM dithiothreitol (DTT), 50 mM Tris-HCl (pH 7.4 at 25° C.) and 4 mM CaCl2 at 25° C. for 60 minutes. Two 100-μL aliquots were taken for Coomassie blue G250 binding analysis to quantify the remaining casein.
(§2) Compound concentrations that cause 50% inhibition (IC50) are as shown (Table I). The second rate of inactivation of calpain I for 2 compounds are also shown.
(§3) Selectivity of α-substituted Hydrazides: Calpain I and II were assayed as described in Example 1. One to 2 ng papain (papaya latex, Sigma, P3125), 1.25 μg trypsin (bovine pancreas, Sigma, T8003), 5 μg thermolysin (Bacillus thermoproteolyticus, Sigma, P1512) were assayed using 0.5 mg/mL casein as substrate in the microplate format (250 μL reaction volume), essentially a described by Buroker-Kilgore, M. and Wang K K W, Anal Biochem 1993;208: 387-392. Cathepsin B (0.002 unit, bovine spleen) was assayed with 50 mM MES (pH 5.5), 100 μM carbobenzoxy-Arg-Arg-4-methoxy-beta-naphthlamide (Cbz-Arg-Arg-MNA), inhibitor, and 2 mM DTT in 200 μL for 60 minutes at room temperature. Fifty-microliter aliquots were transferred to a fluorescence-compatible plate and then read with a Perkin-Elmer fluorometer LS-50B (excitation 340 nm and emission 425 nm). Calcineurin (bovine brain, Sigma) (5 μg, 0.8 unit) was assayed with 10 mM p-nitrophenyl phosphate in 1 mM DTT, 1 mM CaCl2, 1 mM MnCl2, […] calmodulin (CaM, if added), and 50 mM Tris-HCl (pH 7.4) at 25° C. for 60 minutes or more. Production of p-nitrophenol was monitored at 405 nm. Inhibition of these proteases are presented as IC50.

Human Calpain I = molecular target: T2, Human Calpain I (Homo sapiens, UniProt P07384); test: Calpain I activity, casein substrate, Coomassie microplate assay; format: biochemical; details: for pIC50: casein 0.5 mg/mL, pH 7.4, 25° C., 60 minutes (Table I)
T2 construct: Calpain I was purified from human erythrocytes; from tissue; host or cells: human erythrocytes
T2 sequence (P07384 1-714): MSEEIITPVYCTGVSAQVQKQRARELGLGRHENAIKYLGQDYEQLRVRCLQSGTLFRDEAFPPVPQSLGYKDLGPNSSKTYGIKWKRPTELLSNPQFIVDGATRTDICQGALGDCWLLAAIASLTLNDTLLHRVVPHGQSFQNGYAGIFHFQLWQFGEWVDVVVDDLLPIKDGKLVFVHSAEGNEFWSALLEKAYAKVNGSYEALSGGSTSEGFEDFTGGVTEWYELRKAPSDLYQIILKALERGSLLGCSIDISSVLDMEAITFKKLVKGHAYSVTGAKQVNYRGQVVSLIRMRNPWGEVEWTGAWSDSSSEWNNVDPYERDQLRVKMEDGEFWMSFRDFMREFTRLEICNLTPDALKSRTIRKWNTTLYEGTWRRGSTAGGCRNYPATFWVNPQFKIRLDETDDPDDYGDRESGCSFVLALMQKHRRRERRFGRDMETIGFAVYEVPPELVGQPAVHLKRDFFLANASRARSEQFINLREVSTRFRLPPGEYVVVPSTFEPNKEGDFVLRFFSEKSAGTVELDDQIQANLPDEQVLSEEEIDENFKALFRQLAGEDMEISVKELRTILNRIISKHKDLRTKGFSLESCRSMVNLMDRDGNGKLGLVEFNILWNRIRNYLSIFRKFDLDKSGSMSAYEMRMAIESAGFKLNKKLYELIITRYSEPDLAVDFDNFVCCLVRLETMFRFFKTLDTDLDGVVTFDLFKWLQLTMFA
T2 sequence (P04632 1-268 partner): T1 sequence (P04632 1-268 partner)
Protocol: as §1, §2, §3

[1] = system: Spectrin Breakdown in Human Leukemic Molt-4 cells; test: Cell-based calpain assay: spectrin breakdown in Molt-4 cells treated with calcium ionophore A23187; details: 1 hour preincubation, 15 μM A23187, 90 minutes, read-out: IC50 for inhibition of spectrin breakdown (145 kD fragment formation)
Protocol: Calpain inhibitor was added to the wells if desired and preincubated for 1 hour. […] The cells were then lysed with 2% (w/v) SDS, 5 mM EGTA, 5 mM EDTA, 150 mM NaCl, 0.5 mM PMSF, 10 μg/mL AEBSF, 5 μg/mL leupeptin, 10 μg/mL pepstatin, 10 μg/mL TLCK, 10 μg/mL TPCK, and 20 mM Tris-HCl (pH 7.4) at room temperature for 5 to 10 minutes. One hundred microliters of 100% (w/v) TCA was added and total protein precipitate was collected by microcentrifugation. The final pellets were neutralized with Tris base. Protein samples (50 μg) were run on SDS-PAGE with the Tris-glycine running buffer system and transferred onto a PVDF membrane. The blots were probed with an anti-spectrin (nonerythroid) antibody and a second antibody with alkaline phosphatase conjugate. The blots were developed with nitro blue tetrazolium and 5-bromo-4-chloro-3-indolyl-phosphate.

ischemic neocortex = details: applied directly to the surfaces of ischemic neocortex; cited from earlier work
cataract = details: whole animal; cited from earlier work
[2] = system: acute myocardiac infraction in dogs; details: coronary reperfusion after acute myocardiac infraction; cited from earlier work
platelet = details: cited from earlier work
aggregin = details: cited from earlier work

Compound: CCCC[C@@H](C=O)NC(=O)[C@H](CC(C)C)NC(=O)[C@H](CC(C)C)NC(C)=O [calpain inhibitor I] (Ac-Leu-Leu-[Nle]-aldehyde)
Restenosis (restenosis): can inhibit restenosis

pIC50 (Human Calpain II): 6.24
pIC50 (Human Calpain I): 6.16
pIC50 [1]: 4.60
Compound: O=C(CBr)NN=c1[nH]c2ccccc2n(-c2ccccc2)c1=O [Example 4, 2-Bromo-acetic acid (3-oxo-4-phenyl-3,4-dihydro-1H-quinoxalin-2-ylidene)-hydrazide]

Compound: CCNC(=O)C(=O)C(CC)NC(=O)C(CC(C)C)NC(=O)OCc1ccccc1 (stereo not drawn) [AK275]
Size of the expected infarct (ischemic neocortex): dramatically and unequivocally reduce the size of the expected infarct

Compound: CC(C)C[C@H](NC(=O)[C@H]1O[C@@H]1C(=O)O)C(=O)NCCCCN=C(N)N [Example E64]
Rate of cataract formation (cataract): reduce the rate of cataract formation

pIC50 (Human Calpain II): 4.96
pIC50 (Human Calpain I): 5.08
Compound: Cn1c(=O)c(=NNC(=O)CCl)[nH]c2ccccc21 [Example 14, 2-Chloro-acetic acid (4-methyl-3-oxo-3,4-dihydro-1H-quinoxalin-3-ylidene)-hydrazide]

Compound: CC(C)CCNC(=O)[C@H](CC(C)C)NC(=O)[C@H]1O[C@@H]1C(=O)O [Example E64c]
Size of infarct [2]: significantly reduce the size of infract

pIC50 (Human Calpain II): 6.80
Ki/[I] Calpain I (second rate of inactivation) (Human Calpain I): 63.7 M⁻¹ s⁻¹
pIC50 (Human Calpain I): 6.31
pIC50 [1]: 4.82
Compound: O=C(CCl)NN=c1[nH]c2ccccc2n(-c2ccc(Cl)cc2)c1=O [Example 9, 2-Chloro-acetic acid [4-(4-chloro-phenyl)-3-oxo-3,4-dihydro-1H-quinoxalin-2-ylidene]-hydrazide]

Compound: Phe-Gln-Val-Val-Cys(3-nitro-2-thiopyridine)-Gly-NH2 (FQVVC(3‑nitro‑2‑thiopyridine)G-NH2)
Platelet aggregation (platelet): blocked aggregin breakdown and platelet aggregation
Aggregin breakdown (aggregin): blocked aggregin breakdown
